Data published in patent EP4603105A1, “PHARMACEUTICAL COMPOSITION CONTAINING CYCLIC COMPOUND HAVING SELECTIVE KRAS INHIBITORY EFFECT AGAINST HRAS AND NRAS” (CHUGAI SEIYAKU KABUSHIKI KAISHA, priority 2022, dated 2024).
Like-named read-outs stand apart in the source and are kept apart here.

Key:
[1] = target: GDP-bound KRAS wild-type protein (Homo sapiens, UniProt P01116); experiment: Binding to KRAS by surface plasmon resonance (SPR), dissociation constant KD
How it was run: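 Read-out is KD from 1:1 fitting of single-cycle kinetics sensorgrams, blank-cycle and reference-surface corrected. Proteins were GDP-loaded, biotinylated Avi-fusions freshly captured each cycle at roughly 100–300 RU. Runs were at 30°C in HBS pH 7.4 with MgCl2, GDP and 4% DMSO.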

[2] = target: GDP-bound NRAS wild-type protein (Homo sapiens, UniProt P01111); experiment: Binding to NRAS by surface plasmon resonance (SPR), KD and KD ratio to KRAS
GDP-bound NRAS wild-type protein, sequence (P01111 whole entry): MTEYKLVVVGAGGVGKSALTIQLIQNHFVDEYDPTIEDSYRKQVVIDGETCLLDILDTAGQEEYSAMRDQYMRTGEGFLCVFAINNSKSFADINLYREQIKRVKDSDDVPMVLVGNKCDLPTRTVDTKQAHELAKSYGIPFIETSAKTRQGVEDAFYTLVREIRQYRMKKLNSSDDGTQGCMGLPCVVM
How it was run: (§1)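 GDP-loaded biotinylated Avi-tag RAS proteins (E. coli-expressed) captured on a Biotin CAPture chip at ~100–300 RU; single-cycle kinetics at 30°C, 100 µL/min, 75 s injections of rising compound concentrations. HBS pH 7.4 running buffer with 1 mM DTT, 10 mM MgCl2, 10 µM GDP, 4% DMSO. KD from 1:1 binding fit.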

HRAS wild-type protein = HRAS wild-type protein (Homo sapiens, UniProt P01112); experiment: Binding to HRAS by surface plasmon resonance (SPR), KD and KD ratio to KRAS
HRAS wild-type protein, sequence (P01112 whole entry): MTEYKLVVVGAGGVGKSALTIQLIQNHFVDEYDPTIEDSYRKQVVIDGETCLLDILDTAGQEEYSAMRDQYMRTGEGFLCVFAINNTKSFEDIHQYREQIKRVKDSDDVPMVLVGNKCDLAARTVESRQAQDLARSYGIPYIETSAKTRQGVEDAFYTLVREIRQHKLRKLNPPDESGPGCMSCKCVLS
How it was run: as §1

[3] = system: human lung cancer strain NCI-H441; experiment: NCI-H441 cell proliferation inhibitory activity (CellTiter-Glo, 4 days); type: cell-based; conditions: read-out: NCl-H441 IC50
How it was run: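 Readout: […] after the ATP-based reagent. Compound: serial dilutions in dimethyl sulfoxide.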

[4] = Single Cycle Kinetics, 1:1 binding model
[5] = ratio of KD with respect to GDP-bound NRAS wild-type protein to KD with respect to KRAS
[6] = ratio of KD with respect to HRAS wild-type protein to KD with respect to KRAS
[7] = 50% proliferation inhibitory concentration, four days
[8] = ratio of KD for GDP-bound NRAS wild-type protein to KD for KRAS
[9] = ratio of KD for HRAS wild-type protein to KD for KRAS

GDP-bound KRAS wild-type protein, sequence (P01116 1-188 isoform P01116-2): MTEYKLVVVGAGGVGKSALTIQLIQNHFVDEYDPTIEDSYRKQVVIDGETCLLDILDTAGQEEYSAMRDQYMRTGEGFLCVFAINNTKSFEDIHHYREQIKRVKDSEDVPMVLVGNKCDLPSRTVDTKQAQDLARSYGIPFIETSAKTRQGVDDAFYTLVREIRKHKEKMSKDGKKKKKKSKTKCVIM

Row | Structure (SMILES) | Kd [1, 4] [nM] | NRAS /KRAS [2, 5] | HRAS /KRAS (HRAS wild-type protein; [6]) | IC50 [3, 7] [nM] | Kd ([1]; 1:1 binding model) [nM] | NRAS /KRAS [2, 8] | HRAS /KRAS (HRAS wild-type protein; [9]) | IC50 ([3]; NCI-H441 cells, 4 days) [nM] | Kd ([1]; Single Cycle Kinetics) [nM]
1 | CCO[C@@H]1C[C@H]2C(=O)NC3(CCC3)C(=O)N(C)[C@@H](C3CCCC3)C(=O)N(C)[C@H](C(=O)N3CCOCC3)CC(=O)N(C)[C@@H](CC3CCC3)C(=O)N[C@@H]([C@@H](C)CC)C(=O)N(C)CC(=O)N(C)[C@H]3C/C=C\CCN(C3=O)[C@@H](Cc3ccc(C(F)(F)F)cc3)C(=O)N(C)CC(=O)N[C@@H](CCc3cc(F)c(C(F)(F)F)c(F)c3)C(=O)N2C1 [PP1422] | 0.22 | AA (a compound having 20 or more is denoted as AA) | A (a compound having 10 or more and less than 20 is denoted as A) | 14.1 | – | – | – | – | –
2 | CCO[C@@H]1C[C@H]2C(=O)NC3(CCC3)C(=O)N(C)[C@@H](C3CCCC3)C(=O)N(C)[C@H](C(=O)N(C)C)CC(=O)N(C)[C@@H](CC3CCCC3)C(=O)N[C@@H]([C@@H](C)CC)C(=O)N(C)CC(=O)N(C)[C@H]3C/C=C\CCN(C3=O)[C@@H](Cc3ccc(C(F)(F)F)cc3)C(=O)N(C)CC(=O)N[C@@H](CCc3ccc4sccc4c3)C(=O)N2C1 [PP1261] | 0.44 | A (a compound having 10 or more and less than 20 is denoted as A) | A (a compound having 10 or more and less than 20 is denoted as A) | 76.8 | – | – | – | – | –
3 | CC[C@H](C)[C@@H]1NC(=O)[C@H](CC)N(C)C(=O)C[C@@H](C(=O)N(C)C)N(C)C(=O)[C@H](C2CCCC2)N(C)C(=O)C2(CCC2)NC(=O)[C@@H]2CC(F)(F)CN2C(=O)[C@H](CCc2cc(F)c(C(F)(F)F)c(F)c2)NC(=O)CN(C)C(=O)[C@H](CC2CCCCC2)N2CC/C=C\C[C@@H](C2=O)N(C)C(=O)CN(C)C1=O [PP1462] | 0.12 | A (a compound having 10 or more and less than 20 is denoted as A) | A (a compound having 10 or more and less than 20 is denoted as A) | 27.5 | – | – | – | – | –
4 | CCC[C@H]1C(=O)N[C@@H](CC(C)C)C(=O)N(CCOC)CC(=O)N(C)[C@H]2C/C=C\CCN(C2=O)[C@@H](Cc2ccc(C)cc2)C(=O)N(C)CC(=O)N[C@@H](CCc2cc(F)c(C(F)(F)F)c(F)c2)C(=O)N2C[C@H](OCC)C[C@H]2C(=O)NC2(CC(C)(C)C2)C(=O)N(C)[C@@H](C2CCCC2)C(=O)N(C)[C@H](C(=O)N(C)C)CC(=O)N1C [PP2520] | – | – | – | – | 3.3 | A (a compound having 10 or more and less than 20 is denoted as A) | A (a compound having 10 or more and less than 20 is denoted as A) | 210 | –
5 | CCC[C@H]1C(=O)N[C@@H]([C@@H](C)CC)C(=O)N(C)CC(=O)N(C)[C@H]2C/C=C\CCN(C2=O)[C@@H](Cc2ccc(C(F)(F)F)cc2)C(=O)N(C)CC(=O)N[C@@H](CCc2ccc(Cl)c(Cl)c2)C(=O)N2C[C@H](OCC)C[C@H]2C(=O)NC2(CC(C)(C)C2)C(=O)N(C)[C@@H](CC2CCC2)C(=O)N(C)[C@H](C(=O)N(C)C)CC(=O)N1C [PP2766] | – | – | – | – | 0.52 | A (a compound having 10 or more and less than 20 is denoted as A) | A (a compound having 10 or more and less than 20 is denoted as A) | 26 | –
6 | CCC[C@H]1C(=O)N[C@H]([C@@H](C)CC)C(=O)N2C[C@@H](OC)C[C@H]2C(=O)N(C)[C@H]2C/C=C\CCN(C2=O)[C@@H](Cc2ccc(C)cc2)C(=O)N(C)CC(=O)N[C@@H](CCc2ccc(C(F)(F)F)c(Cl)c2)C(=O)N2C[C@H](OCC)C[C@H]2C(=O)NC2(CCC2)C(=O)N(C)[C@@H](C2CCCC2)C(=O)N(C)[C@H](C(=O)N(C)C)CC(=O)N1C [PP2552] | – | – | – | – | 0.28 | A (a compound having 10 or more and less than 20 is denoted as A) | B (a compound having 3 or more and less than 10 is denoted as B) | 30.5 | –
7 | CCOC[C@H]1C(=O)N[C@@H]([C@@H](C)CC)C(=O)N(C)CC(=O)N(C)[C@H]2C/C=C\CCN(C2=O)[C@@H](Cc2ccc(C(F)(F)F)cc2)C(=O)N(C)CC(=O)N[C@@H](CCc2ccc(Cl)c(Cl)c2)C(=O)N2C[C@H](OCC)C[C@H]2C(=O)NC2(CC(C)(C)C2)C(=O)N(C)[C@@H](CC2CCC2)C(=O)N(C)[C@H](C(=O)N(C)C)CC(=O)N1C [PP2767] | – | – | – | – | 0.49 | A (a compound having 10 or more and less than 20 is denoted as A) | A (a compound having 10 or more and less than 20 is denoted as A) | 62.6 | –
8 | CCO[C@@H]1C[C@H]2C(=O)NC3(CCC3)C(=O)N(C)[C@@H](C3CCCC3)C(=O)N(C)[C@H](C(=O)N(C)C)CC(=O)N(C)[C@@H](C)C(=O)N[C@@H]([C@@H](C)CC)C(=O)N(C)CC(=O)N(C)[C@H]3CCCCCN(C3=O)[C@@H](Cc3ccc(F)cc3)C(=O)N(C)CC(=O)N[C@@H](CCc3cc(F)c(C(F)(F)F)c(F)c3)C(=O)N2C1 [PP1189] | 0.066 | B (a compound having 3 or more and less than 10 is denoted as B) | B (a compound having 3 or more and less than 10 is denoted as B) | 16.1 | – | – | – | – | –
9 | CCCOC[C@@H]1NC(=O)C[C@@H](C(=O)N(C)CCC)N(C)C(=O)[C@H](C2CCCC2)N(C)C(=O)C2(CC(C)(C)C2)NC(=O)[C@@H]2C[C@@H](OCC)CN2C(=O)[C@H](CCc2ccc(C(F)(F)F)c(Cl)c2)NC(=O)CN(C)C(=O)[C@H](Cc2ccc(C(F)(F)F)cc2)N2CC/C=C\C[C@@H](C2=O)N(C)C(=O)CN(C)C(=O)[C@H]([C@@H](C)CC)NC1=O [PP3450] | – | – | – | – | – | A (a compound having 10 or more and less than 20 is denoted as A) | A (a compound having 10 or more and less than 20 is denoted as A) | 43.3 | 0.51
10 | C#CC[C@H]1C(=O)N[C@@H]([C@@H](C)CC)C(=O)N2CCC[C@H]2C(=O)N(C)[C@H]2C/C=C\CCN(C2=O)[C@@H](Cc2ccc(C(F)(F)F)cc2)C(=O)N(C)CC(=O)N[C@@H](CCc2ccc(C(F)(F)F)c(OC)c2)C(=O)N2C[C@H](OCC)C[C@H]2C(=O)N(C)C2(CCC2)C(=O)N(C)[C@@H](C2CCCC2)C(=O)N(C)[C@H](C(=O)N(C)C)CC(=O)N1C [PP3252] | – | – | – | – | – | A (a compound having 10 or more and less than 20 is denoted as A) | A (a compound having 10 or more and less than 20 is denoted as A) | 4.5 | 0.082
11 | CCC[C@H]1C(=O)N[C@@H]([C@@H](C)CC)C(=O)N(C)CC(=O)N(C)[C@H]2C/C=C\CCN(C2=O)[C@@H](Cc2ccc(C)cc2)C(=O)N(C)CC(=O)N[C@@H](CCc2ccc(C(F)(F)F)c(OC)c2)C(=O)N2CC3(CC3)C[C@H]2C(=O)N(C)C2(CCC2)C(=O)N(C)[C@@H](C2CCCC2)C(=O)N(C)[C@H](C(=O)N(C)C)CC(=O)N1C [PP3290] | – | – | – | – | – | A (a compound having 10 or more and less than 20 is denoted as A) | B (a compound having 3 or more and less than 10 is denoted as B) | 1.9 | 0.021
12 | CCC[C@H]1C(=O)N[C@@H]([C@@H](C)CC)C(=O)N2CCCC[C@H]2C(=O)N(C)[C@H]2C/C=C\CCN(C2=O)[C@@H](Cc2ccc(C)cc2)C(=O)N(C)CC(=O)N[C@@H](CCc2cc(F)c(C(F)(F)F)c(F)c2)C(=O)N2C[C@H](OCC)C[C@H]2C(=O)N(C)C2(CCC2)C(=O)N(C)[C@@H](C2CCCC2)C(=O)N(C)[C@H](C(=O)N(C)C)CC(=O)N1C [PP3274] | – | – | – | – | – | A (a compound having 10 or more and less than 20 is denoted as A) | B (a compound having 3 or more and less than 10 is denoted as B) | 25.1 | 0.81
13 | CCO[C@@H]1C[C@H]2C(=O)NC3(CCC3)C(=O)N(C)[C@@H](C(CC)CC)C(=O)N(C)[C@H](C(=O)N(C)C)CC(=O)N(C)[C@@H](CC)C(=O)N[C@@H]([C@@H](C)CC)C(=O)N(C)CC(=O)N(C)[C@H]3C/C=C\CCN(C3=O)[C@@H](Cc3ccc(C(F)(F)F)cc3)C(=O)N(C)CC(=O)N[C@@H](CCc3ccc(C(F)(F)F)c(OC)c3)C(=O)N2C1 [PP1207] | 0.21 | AA (a compound having 20 or more is denoted as AA) | A (a compound having 10 or more and less than 20 is denoted as A) | 29.9 | – | – | – | – | –
14 | CCCC[C@H]1C(=O)N[C@@H]([C@@H](C)CC)C(=O)N(C)CC(=O)N(C)[C@H]2C/C=C\CCN(C2=O)[C@@H](Cc2ccc(C(F)(F)F)cc2)C(=O)N(C)CC(=O)N[C@@H](CCc2cc(F)c(C(F)(F)F)c(F)c2)C(=O)N2C[C@H](OCC)C[C@H]2C(=O)NC2(CCCC2)C(=O)N(C)[C@@H](C2CCCC2)C(=O)N(C)[C@H](C(=O)N(C)C)CC(=O)N1C [PP1397] | 0.073 | A (a compound having 10 or more and less than 20 is denoted as A) | A (a compound having 10 or more and less than 20 is denoted as A) | 3.7 | – | – | – | – | –
15 | CCC[C@H]1C(=O)N[C@@H]([C@@H](C)CC)C(=O)N2CCC[C@H]2C(=O)N(C)[C@H]2C/C=C\CCN(C2=O)[C@@H](Cc2ccc(C)cc2)C(=O)N(C)CC(=O)N[C@@H](CCc2ccc(C(F)(F)F)c(OC)c2)C(=O)N2C[C@H](OCC)C[C@H]2C(=O)OC2(CCC2)C(=O)N(C)[C@@H](C2CCCC2)C(=O)N(C)[C@H](C(=O)N(C)C)CC(=O)N1C [PP3386] | – | – | – | – | – | A (a compound having 10 or more and less than 20 is denoted as A) | B (a compound having 3 or more and less than 10 is denoted as B) | 10.6 | 0.66
